Results reported in patent US8987195B2 (priority 2012, dated 2015).
Like-named read-outs stand apart in the source and are kept apart here.

Tests used:
[1] = rcm bond
[2] = test system: HCV genotype 1b replicon; experiment: HCV replicon assay, genotype 1b replicon EC50; type: cell-based, Hepatitis C virus; settings: Hepatitis C virus, genotype 1b replicon, read-out: EC50 [gt-1b]
In short: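 Stable neomycin-selected genotype 1b replicon cells, some carrying luciferase:Neo^r fusion, plated without G418 with a compound dilution series and incubated 24-48 h. Read-out was RNA (^32P-probe protection or TaqMan, normalized to cyclophilin A) or luciferase activity. EC50 from four-parameter fit as percent of DMSO control.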

[3] = molecular target: HCV NS3/4A protease genotype 1b (Hepatitis C virus genotype 1b, UniProt P26663); experiment: HCV NS3/4A protease time-resolved fluorescence (TRF) assay, Ki against genotype 1b; type: biochemical; settings: IC50 [gt-1b] (nM), NS3/4A genotype 1b, enzyme 0.2 nM
In short: (§1)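 Time-resolved fluorescence readout of NS3/4A cleavage of 25 nM europium-labelled peptide over 2.5 h at room temperature, enzyme levels set for signal/background 10–30 (0.2, 0.4, 0.025 nM for 1b, A156T, 3a). Ki by IC50=Ki(1+[S]/KM).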

[4] = from Boc-(2S)-2-aminonon-8-enoyl-Hyp-(vinylACCA)-OMe?; rcm bond; 15-membered ring; Hoveyda-Grubbs 1st gen; DCM; 9.85 mM; 40.0 °C
[5] = molecular target: HCV NS3/4A protease genotype 3a (Hepatitis C virus genotype 3a, UniProt Q81495); experiment: HCV NS3/4A protease time-resolved fluorescence (TRF) assay, Ki against genotype 3a; type: biochemical
In short: as §1

[6] = molecular target: HCV NS3/4A protease A156T mutant (Hepatitis C virus genotype 1b, UniProt P26663, A1182T); experiment: HCV NS3/4A protease time-resolved fluorescence (TRF) assay, Ki against A156T mutant; type: biochemical; settings: NS3/4A gt-1b A156T mutant, enzyme 0.4 nM; K+ salt; read-out: IC50 [gt-1b A156T]
In short: as §1

Structure (SMILES): CCOC(=O)[C@@]12C[C@H]1C=CCCCCC[C@H](NC(=O)OC(C)(C)C)C(=O)N1C[C@@]3(CCc4c(c(C)nc5c(C(F)(F)F)cccc45)O3)C[C@H]1C(=O)N2
- ring closure, yield of all isomers ([1]; from C=CCCCCC[C@H](NC(=O)OC(C)(C)C)C(=O)N1C[C@@]2(CCc3c(c(C)nc4c(C(F)(F)F)cccc34)O2)C[C@H]1C(=O)N[C@]1(C(=O)OCC)C[C@H]1C=C, Zhan's catalyst, DCE, 3.36 mM, 65.0 °C, 3.0 h): 50%

Structure (SMILES): Cc1nc2ccc(Cl)cc2c2c1O[C@]1(CC2)C[C@H]2C(=O)N[C@]3(C(=O)NS(=O)(=O)C4(C)CC4)C[C@H]3C=CCCCCC[C@H](NC(=O)OC(C)(C)C)C(=O)N2C1
- ring closure, yield of all isomers ([1]; from C=CCCCCC[C@H](NC(=O)OC(C)(C)C)C(=O)N1C[C@@]2(CCc3c(c(C)nc4ccc(Cl)cc34)O2)C[C@H]1C(=O)N[C@]1(C(=O)NS(=O)(=O)C2(C)CC2)C[C@H]1C=C, Zhan's catalyst, DCE, 2.4 mM, 75.0 °C, 0.5 h): 71.6%

Structure (SMILES): CCOC(=O)[C@@]12C[C@H]1C=CCCCCC[C@H](NC(=O)OC(C)(C)C)C(=O)N1C[C@@]3(CCc4c(c(C)nc5ccc(F)cc45)O3)C[C@H]1C(=O)N2
- ring closure, yield of all isomers ([1]; from C=CCCCCC[C@H](NC(=O)OC(C)(C)C)C(=O)N1C[C@@]2(CCc3c(c(C)nc4ccc(F)cc34)O2)C[C@H]1C(=O)N[C@]1(C(=O)OCC)C[C@H]1C=C, Zhan's catalyst, DCE, 2.83 mM, 75.0 °C, 4.0 h): 47%

Structure (SMILES): COc1ccc2nc(C3CC3)c3c(c2c1)CC[C@]1(C[C@H]2C(=O)N[C@]4(C(=O)NS(=O)(=O)C5(C)CC5)C[C@H]4/C=C\CCCCC[C@H](NC(=O)OC(C)(C)C)C(=O)N2C1)O3 [Example 16, tert-Butyl (2R,6S,13aS,14aR,16aS,Z)-5′-cyclopropyl-9′-methoxy-14a-(1-methylcyclopropylsulfonylcarbamoyl)-5,16-dioxo-1′,2′,3,5,6,7,8,9,10,11,13a,14,14a,15,16, 16a-hexadecahydro-1H-spiro[cyclopropa[e]pyrrolo[1,2-a][1,4]diazacyclopentadecine-2,3′-pyrano[2,3-c]quinoline]-6-ylcarbamate]
- EC50 [2]: 690 pM
- ring closure, yield of all isomers ([1]; from C=CCCCCC[C@H](NC(=O)OC(C)(C)C)C(=O)N1C[C@@]2(CCc3c(c(C4CC4)nc4ccc(OC)cc34)O2)C[C@H]1C(=O)N[C@]1(C(=O)NS(=O)(=O)C2(C)CC2)C[C@H]1C=C, Zhan's catalyst, DCE, 2.48 mM, 75.0 °C, 4.0 h): 82.6%
- IC50 [3]: 0.009 nM

Structure (SMILES): COC(=O)[C@@]12C[C@H]1/C=C\CCCCC[C@H](NC(=O)OC(C)(C)C)C(=O)N1C[C@H](O)C[C@H]1C(=O)N2
- ring closure, yield of all isomers ([1]; from C=CCCCCC[C@H](NC(=O)OC(C)(C)C)C(=O)N1C[C@H](O)C[C@H]1C(=O)N[C@]1(C(=O)OC)C[C@H]1C=C, Grubbs-Hoveyda 1st generation catalyst, DCM, 9.85 mM, 40.0 °C, 40.0 h): 74%
- ring closure, isolated yield [4]: 74%

Structure (SMILES): COCC1(S(=O)(=O)NC(=O)[C@@]23C[C@H]2/C=C\CCCCC[C@H](NC(=O)OC(C)(C)C)C(=O)N2C[C@@]4(CCc5c(c(C(F)(F)F)nc6ccc(OC)cc56)O4)C[C@H]2C(=O)N3)CC1 [Example 49, tert-Butyl ((2R,6S,13AS,14AR,16AS,Z)-9′-methoxy-14a-(((1-(methoxymethyl)cyclopropyl)sulfonyl)carbamoyl)-5,16-dioxo-5′-(trifluoromethyl)-1′,2′,3,5,6,7,8,9,10,11, 13A,14,14A,15,16,16A-hexadecahydro-1H-spiro[cyclopropa[e]pyrrolo[1,2-A][1,4]diazacyclopentadecine-2,3′-pyrano[2,3-c]quinolin]-6-yl)carbamate]
- EC50 [2]: 9130 pM
- ring closure, yield of all isomers ([1]; from C=CCCCCC[C@H](NC(=O)OC(C)(C)C)C(=O)N1C[C@@]2(CCc3c(c(C(F)(F)F)nc4ccc(OC)cc34)O2)C[C@H]1C(=O)N[C@]1(C(=O)NS(=O)(=O)C2(COC)CC2)C[C@H]1C=C, Zhan's catalyst, DCE, 2.9 mM, 80.0 °C, 4.0 h): 33%
- IC50 [3]: 0.014 nM

Structure (SMILES): CCOC(=O)[C@@]12C[C@H]1C=CCCCCC[C@H](NC(=O)OC(C)(C)C)C(=O)N1C[C@@]3(CCc4c(c(C)nc5c(F)cccc45)O3)C[C@H]1C(=O)N2
- ring closure, yield of all isomers ([1]; from C=CCCCCC[C@H](NC(=O)OC(C)(C)C)C(=O)N1C[C@@]2(CCc3c(c(C)nc4c(F)cccc34)O2)C[C@H]1C(=O)N[C@]1(C(=O)OCC)C[C@H]1C=C, Zhan's catalyst, DCE, 4.53 mM, 65.0 °C, 1.0 h): 48%

Structure (SMILES): COc1ccc2nc(CO)c3c(c2c1Cl)CC[C@]1(C[C@H]2C(=O)N[C@]4(C(=O)NS(=O)(=O)C5(C)CC5)C[C@H]4C=CCCCCC[C@H](NC(=O)OC(C)(C)C)C(=O)N2C1)O3
- ring closure, yield of all isomers ([1]; from C=CCCCCC[C@H](NC(=O)OC(C)(C)C)C(=O)N1C[C@@]2(CCc3c(c(CO)nc4ccc(OC)c(Cl)c34)O2)C[C@H]1C(=O)N[C@]1(C(=O)NS(=O)(=O)C2(C)CC2)C[C@H]1C=C, Zhan's catalyst, DCE, 1.91 mM, 65.0 °C, 3.0 h): 25.9%

Structure (SMILES): CCOC(=O)[C@@]12C[C@H]1C=CCCCCC[C@H](NC(=O)OC(C)(C)C)C(=O)N1C[C@@]3(CCc4c(c(C)nc5ccc(C)cc45)O3)C[C@H]1C(=O)N2
- ring closure, yield of all isomers ([1]; from C=CCCCCC[C@H](NC(=O)OC(C)(C)C)C(=O)N1C[C@@]2(CCc3c(c(C)nc4ccc(C)cc34)O2)C[C@H]1C(=O)N[C@]1(C(=O)OCC)C[C@H]1C=C, Zhan's catalyst, DCE, 3.55 mM, 65.0 °C, 3.0 h): 68%

Structure (SMILES): Cc1nc2ccccc2c2c1O[C@]1(CC2)C[C@H]2C(=O)N[C@]3(C(=O)NS(=O)(=O)C4(C)CC4)C[C@H]3C=CCCCCC[C@H](NC(=O)OC(C)(C)C)C(=O)N2C1
- ring closure, yield of all isomers ([1]; from C=CCCCCC[C@H](NC(=O)OC(C)(C)C)C(=O)N1C[C@@]2(CCc3c(c(C)nc4ccccc34)O2)C[C@H]1C(=O)N[C@]1(C(=O)NS(=O)(=O)C2(C)CC2)C[C@H]1C=C, Zhan's catalyst, DCE, 2.5 mM, 65.0 °C, 7.0 h): 62.9%

Structure (SMILES): CC(C)(C)OC(=O)N[C@H]1CCCCC/C=C\[C@@H]2C[C@@]2(C(=O)NS(=O)(=O)C2(C)CC2)NC(=O)[C@@H]2C[C@]3(CCc4c(c(CO)nc5ccccc45)O3)CN2C1=O
- ring closure, yield of all isomers ([1]; from C=CCCCCC[C@H](NC(=O)OC(C)(C)C)C(=O)N1C[C@@]2(CCc3c(c(CO)nc4ccccc34)O2)C[C@H]1C(=O)N[C@]1(C(=O)NS(=O)(=O)C2(C)CC2)C[C@H]1C=C, Zhan's catalyst, DCE, 2.0 mM, 65.0 °C, 2.0 h): 45.1%

Structure (SMILES): CCOC(=O)[C@@]12C[C@H]1C=CCCCCC[C@H](NC(=O)OC(C)(C)C)C(=O)N1C[C@@]3(CCc4c(c(C5CCC5)nc5ccc(OC)cc45)O3)C[C@H]1C(=O)N2
- ring closure, yield of all isomers ([1]; from C=CCCCCC[C@H](NC(=O)OC(C)(C)C)C(=O)N1C[C@@]2(CCc3c(c(C4CCC4)nc4ccc(OC)cc34)O2)C[C@H]1C(=O)N[C@]1(C(=O)OCC)C[C@H]1C=C, Zhan's catalyst, DCE, 4.5 mM, 70.0 °C, 2.2 h): 72%

Structure (SMILES): CC(C)(C)OC(=O)N[C@H]1CCCCCC=C[C@@H]2C[C@@]2(C(=O)NS(=O)(=O)C2(C)CC2)NC(=O)[C@@H]2C[C@]3(CCc4c(c(C(F)(F)F)nc5ccccc45)O3)CN2C1=O
- ring closure, yield of all isomers ([1]; from C=CCCCCC[C@H](NC(=O)OC(C)(C)C)C(=O)N1C[C@@]2(CCc3c(c(C(F)(F)F)nc4ccccc34)O2)C[C@H]1C(=O)N[C@]1(C(=O)NS(=O)(=O)C2(C)CC2)C[C@H]1C=C, Zhan's catalyst, DCE, 2.94 mM, 75.0 °C): 73.4%

Structure (SMILES): Cc1nc2ccc(Cl)cc2c2c1O[C@]1(CC2)C[C@H]2C(=O)N[C@]3(C(=O)NS(=O)(=O)C4(C)CC4)C[C@H]3/C=C\CCCCC[C@H](NC(=O)OCC(C)C)C(=O)N2C1 [Example 189, 2-methylpropyl [(2R,6S,12Z,13aS,14aR,16aS)-9′-chloro-5′-methyl-14a-{[(1-methylcyclopropyl)sulfonyl]carbamoyl}-5,16-dioxo-1,1′,2′,5,6,7,8,9,10,11,13a,14,14a,15,16,16a-hexadecahydrospiro[cyclopropa[e]pyrrolo[1,2-a][1,4]diazacyclopentadecine-2,3′-pyrano[2,3-c]quinolin]-6-yl]carbamate]
- IC50 [5]: 394 pM
- EC50 ([2]; K+ salt): 6420 pM
- IC50 ([3]; K+ salt): 0.002 nM
- IC50 [6]: 62 pM

Structure (SMILES): Cc1nc2ccc(OC(F)(F)F)cc2c2c1O[C@]1(CC2)C[C@H]2C(=O)N[C@]3(C(=O)NS(=O)(=O)C4(C)CC4)C[C@H]3C=CCCCCC[C@H](NC(=O)OC(C)(C)C)C(=O)N2C1
- ring closure, yield of all isomers ([1]; from C=CCCCCC[C@H](NC(=O)OC(C)(C)C)C(=O)N1C[C@@]2(CCc3c(c(C)nc4ccc(OC(F)(F)F)cc34)O2)C[C@H]1C(=O)N[C@]1(C(=O)NS(=O)(=O)C2(C)CC2)C[C@H]1C=C, Zhan's catalyst, DCE, 2.32 mM, 70.0 °C, 6.0 h): 71%
